The values below come from patent US20240246964A1 (Arbutus Biopharma Corporation, priority 2021, published 2024).

For assay [1], the target named is PD-L1 His protein / PD-1 Fc protein (Homo sapiens (Human), UniProt Q9NZQ7). Kind of assay: HTRF Assay (PD-1/PD-L1 interaction). It is filed as binding. Particulars: PD-L1 His 6 nM, PD-1 Fc 6 nM. A general note: In TR-FRET formats the signal depends on donor and acceptor labels being close together.
Another assay concerns the target human PD-L1 (Homo sapiens (Human), UniProt Q9NZQ7). Kind of assay: T cell activation luciferase reporter cell culture system (T Cell Activation Assay). It is filed as cell-based. Particulars: luciferase reporter assay; PD-L1 aAPC/CHO-K1 cells with PD-1 effector Jurkat T cells. A general note: A reporter such as luciferase makes a cellular process visible.

Sequence of PD-L1 His protein / PD-1 Fc protein (Q9NZQ7 19-238): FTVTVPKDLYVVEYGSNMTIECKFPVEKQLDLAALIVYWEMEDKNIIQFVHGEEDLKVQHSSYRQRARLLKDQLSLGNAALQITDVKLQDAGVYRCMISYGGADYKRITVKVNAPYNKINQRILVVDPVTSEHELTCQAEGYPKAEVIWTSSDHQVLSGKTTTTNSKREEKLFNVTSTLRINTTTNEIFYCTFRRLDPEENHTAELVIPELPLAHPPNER
Sequence of human PD-L1 (Q9NZQ7 19-290): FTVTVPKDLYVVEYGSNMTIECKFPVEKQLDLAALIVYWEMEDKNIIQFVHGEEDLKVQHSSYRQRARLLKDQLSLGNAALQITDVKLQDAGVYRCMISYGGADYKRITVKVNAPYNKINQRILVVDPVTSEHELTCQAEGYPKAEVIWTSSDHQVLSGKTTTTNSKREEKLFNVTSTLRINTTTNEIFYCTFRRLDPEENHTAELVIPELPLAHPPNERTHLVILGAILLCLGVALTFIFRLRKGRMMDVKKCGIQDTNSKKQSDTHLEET

In general, IC50 refers to the midpoint of a concentration-inhibition curve. A high value points to weaker potency in that assay. One may read the EC50 as the midpoint of the concentration-response curve. Low readings indicate an effect from little substance, high ones a need for much substance. Molecule `COc1cc(-c2nccc(-c3cccc(-c4ccc(CNC[C@@H]5CCC(=O)N5)c(OC)n4)c3Cl)c2Cl)cc(C)c1CNC[C@@H]1CCC(=O)N1` [Compound 115, (S)-5-((((6-(2-chloro-3-(3-chloro-2-(3-methoxy-5-methyl-4-(((((S)-5-oxopyrrolidin-2-yl)methyl)amino)methyl)phenyl)pyridin-4-yl)phenyl)-2-methoxypyridin-3-yl)methyl)amino)methyl)pyrrolidin-2-one] came in with an IC50 in assay [1] of 1.1 nM. This molecule yielded a concentration giving a half-maximal response (EC50) at human PD-L1 of 36.3 nM.
The like results for `COc1nc(-c2cccc(-c3ccnc(-c4ccc5c(c4)CNC5)c3Cl)c2Cl)ccc1CNC[C@@H]1CCC(=O)N1` [Compound 116, (S)-5-((((6-(2-chloro-3-(3-chloro-2-(isoindolin-5-yl)pyridin-4-yl)phenyl)-2-methoxypyridin-3-yl)methyl)amino)methyl)pyrrolidin-2-one] were, in that order, 0.9 nM and 64.9 nM.
In assay [1], `COc1cc(-c2nccc(-c3cccc(-c4ccc(CNC[C@@H]5CCC(=O)N5)c(OC)n4)c3Cl)c2Cl)cc(C)c1CN(C)C[C@@H]1CCC(=O)N1` [Compound 117, (S)-5-((((6-(2-chloro-3-(3-chloro-2-(3-methoxy-5-methyl-4-((methyl(((S)-5-oxopyrrolidin-2-yl)methyl)amino)methyl)phenyl)pyridin-4-yl)phenyl)-2-methoxypyridin-3-yl)methyl)amino)methyl)pyrrolidin-2-one] yielded a half-inhibitory concentration (IC50) of 1.3 nM. For the same molecule, on human PD-L1, the EC50 is 30.7 nM.
In assay [1], `COc1cc(-c2nccc(-c3cccc(-c4ccc(CNC[C@@H]5CCC(=O)N5)c(OC)n4)c3Cl)c2Cl)cc(C)c1CN(C)C[C@H](C)O` [Compound 118, (S)-5-((((6-(2-chloro-3-(3-chloro-2-(4-((((S)-2-hydroxypropyl)(methyl)amino)methyl)-3-methoxy-5-methylphenyl)pyridin-4-yl)phenyl)-2-methoxypyridin-3-yl)methyl)amino)methyl)pyrrolidin-2-one] registered an IC50 of 1.6 nM. A half-maximal effect on human PD-L1 (EC50) was put at 44.1 nM.
The like results for `COc1nc(-c2ccnc(-c3cccc4c3CC[C@@H]4Oc3nc(OC)c(CNC[C@H](C)O)cc3C(F)(F)F)c2Cl)ccc1CNC[C@@H]1CCC(=O)N1` [Compound 128, (S)-5-((((3′-chloro-2′-((S)-1-((5-((((S)-2-hydroxypropyl)amino)methyl)-6-methoxy-3-(trifluoromethyl)pyridin-2-yl)oxy)-2,3-dihydro-1H-inden-4-yl)-6-methoxy-[2,4′-bipyridin]-5-yl)methyl)amino)methyl)pyrrolidin-2-one] were, in that order, 0.542 nM and 9.11 nM.
Regarding `COc1nc(-c2ccnc(-c3cccc4c3CC[C@@H]4Oc3nc(OC)c(CNC4(C(=O)O)CC4)cc3C(F)(F)F)c2Cl)ccc1CNC[C@@H]1CCC(=O)N1` [Compound 129, 1-(((6-(((S)-4-(3′-chloro-6-methoxy-5-(((((S)-5-oxopyrrolidin-2-yl)methyl)amino)methyl)-[2,4′-bipyridin]-2′-yl)-2,3-dihydro-1H-inden-1-yl)oxy)-2-methoxy-5-(trifluoromethyl)pyridin-3-yl)methyl)amino)cyclopropane-1-carboxylic acid], in assay [1], half-maximal inhibition (IC50) required 0.305 nM. This molecule registered an EC50 on human PD-L1 of 16.4 nM.
For the molecule `COc1cc(-c2nccc(-c3cccc(-c4ccc(CNC[C@@H]5CCC(=O)N5)c(OC)n4)c3Cl)c2Cl)ccc1CN[C@@H](C)C(=O)O` [Compound 130, (4-(3-chloro-4-(2-chloro-3-(6-methoxy-5-(((((S)-5-oxopyrrolidin-2-yl)methyl)amino)methyl)pyridin-2-yl)phenyl)pyridin-2-yl)-2-methoxybenzyl)-L-alanine], the concentration for half-maximal inhibition (IC50) in assay [1] was determined as 0.209 nM. Further, on human PD-L1, a half-maximal response (EC50) required 158 nM.
As for `COc1cc(-c2nccc(-c3cccc(-c4cc(F)c(CNC[C@@H]5CCC(=O)N5)c(OC)n4)c3Cl)c2Cl)cc2c1CN(C[C@@H](C)O)CC2` [Compound 131, (S)-5-((((6-(2-chloro-3-(3-chloro-2-(2-((R)-2-hydroxypropyl)-8-methoxy-1,2,3,4-tetrahydroisoquinolin-6-yl)pyridin-4-yl)phenyl)-4-fluoro-2-methoxypyridin-3-yl)methyl)amino)methyl)pyrrolidin-2-one], the IC50 in assay [1] turned out to be 0.662 nM. Also, at human PD-L1, the EC50 came to 35.4 nM.
Molecule `COc1cc(-c2nccc(-c3cccc(-c4cc(F)c(CNC[C@@H]5CCC(=O)N5)c(OC)n4)c3Cl)c2Cl)cc2c1CN(CCO)CC2` [Compound 132, (S)-5-((((6-(2-chloro-3-(3-chloro-2-(2-(2-hydroxyethyl)-8-methoxy-1,2,3,4-tetrahydroisoquinolin-6-yl)pyridin-4-yl)phenyl)-4-fluoro-2-methoxypyridin-3-yl)methyl)amino)methyl)pyrrolidin-2-one] yielded an IC50 in assay [1] of 0.408 nM. Besides, it took 51.2 nM to reach a half-maximal effect on human PD-L1 (EC50).
The corresponding values for `COc1cc(-c2nccc(-c3cccc(-c4ccc(CNC[C@@H]5CCC(=O)N5)c(OC)n4)c3Cl)c2Cl)ccc1CNC1(C(=O)OC(C)C)CC1` [Compound 135, isopropyl (S)-1-((4-(3-chloro-4-(2-chloro-3-(6-methoxy-5-((((5-oxopyrrolidin-2-yl)methyl)amino)methyl)pyridin-2-yl)phenyl)pyridin-2-yl)-2-methoxybenzyl)amino)cyclopropane-1-carboxylate] are 31.2 nM and not below 10000 nM.
Consider `CNCc1ccc(-c2nccc(-c3cccc(-c4ccc(CNC)c(OC)n4)c3Cl)c2Cl)cc1OC` [Compound 136, 1-(6-(2-chloro-3-(3-chloro-2-(3-methoxy-4-((methylamino)methyl)phenyl)pyridin-4-yl)phenyl)-2methoxypyridin-3-yl)-N-methylmethanamine], for which, in assay [1], half-maximal inhibition (IC50) was put at 0.708 nM. At human PD-L1, this molecule gave an EC50 of 16.3 nM.
In turn, `COc1nc(-c2cccc(-c3ccnc(-c4ccc5c6c(n(C)c5c4)CCNC6)c3Cl)c2Cl)ccc1CNC[C@@H]1CCC(=O)N1` [Compound 141, (S)-5-((((6-(2-chloro-3-(3-chloro-2-(5-methyl-2,3,4,5-tetrahydro-1H-pyrido[4,3-b]indol-7-yl)pyridin-4-yl)phenyl)-2-methoxypyridin-3-yl)methyl)amino)methyl)pyrrolidin-2-one] came in with an IC50 in assay [1] of 0.826 nM. In addition, the concentration for a half-maximal effect (EC50) on human PD-L1 is not below 10000 nM.
The like results for `COc1nc(-c2cccc(-c3ccnc(-c4ccc5c(c4)CN(CCNC[C@@H]4CCC(=O)N4)C5=O)c3Cl)c2Cl)ccc1CNC[C@H](C)O` [Compound 142, 5-(3-chloro-4-(2-chloro-3-(5-((((S)-2-hydroxypropyl)amino)methyl)-6-methoxypyridin-2-yl)phenyl)pyridin-2-yl)-2-(2-((((S)-5-oxopyrrolidin-2-yl)methyl)amino)ethyl)isoindolin-1-one] were, in that order, 6.66 nM and 3380 nM.
`COc1nc(-c2cccc(-c3ccnc(-c4ccc5c(c4)CN(CCNC[C@@H]4CCC(=O)N4)C5=O)c3Cl)c2Cl)ccc1CNC1CCN(C(C)=O)CC1` [Compound 143, (S)-5-(4-(3-(5-(((1-acetylpiperidin-4-yl)amino)methyl)-6-methoxypyridin-2-yl)-2-chlorophenyl)-3-chloropyridin-2-yl)-2-(2-(((5-oxopyrrolidin-2-yl)methyl)amino)ethyl)isoindolin-1-one] registered an IC50 in assay [1] of 3.94 nM. At human PD-L1, this molecule returned an EC50 of 5440 nM.
The like results for `COc1nc(-c2cccc(-c3ccnc(-c4ccc5c(c4)CN(CCNC[C@@H]4CCC(=O)N4)C5=O)c3Cl)c2Cl)ccc1CN1CC2(C1)CN(C(C)=O)C2` [Compound 144, (S)-5-(4-(3-(5-((6-acetyl-2,6-diazaspiro[3.3]heptan-2-yl)methyl)-6-methoxypyridin-2-yl)-2-chlorophenyl)-3-chloropyridin-2-yl)-2-(2-(((5-oxopyrrolidin-2-yl)methyl)amino)ethyl)isoindolin-1-one] were, in that order, 2.68 nM and not below 10000 nM.
The corresponding values for `COc1cc(-c2nccc(-c3cccc(-c4ccc(CNC[C@@H]5CCC(=O)N5)c(OC)n4)c3Cl)c2Cl)cc(F)c1CN1CC2(CNC(=O)C2)C1` [Compound 145, (S)-2-(4-(3-chloro-4-(2-chloro-3-(6-methoxy-5-((((5-oxopyrrolidin-2-yl)methyl)amino)methyl)pyridin-2-yl)phenyl)pyridin-2-yl)-2-fluoro-6-methoxybenzyl)-2,6-diazaspiro[3.4]octan-7-one] are 2.02 nM and 17.7 nM.
The like results for `COc1cc(-c2nccc(-c3cccc(-c4ccc(CNC[C@@H]5CCC(=O)N5)c(OC)n4)c3Cl)c2Cl)cc(F)c1CN1CC2(CC(O)C2)C1` [Compound 146, (S)-5-((((6-(2-chloro-3-(3-chloro-2-(3-fluoro-4-((6-hydroxy-2-azaspiro[3.3]heptan-2-yl)methyl)-5-methoxyphenyl)pyridin-4-yl)phenyl)-2-methoxypyridin-3-yl)methyl)amino)methyl)pyrrolidin-2-one] were, in that order, 0.77 nM and 61.1 nM.
`COc1cc(-c2nccc(-c3cccc(-c4ccc(CNC[C@@H]5CCC(=O)N5)c(OC)n4)c3Cl)c2Cl)cc(F)c1CNCCCF` [Compound 147, (S)-5-((((6-(2-chloro-3-(3-chloro-2-(3-fluoro-4-(((3-fluoropropyl)amino)methyl)-5-methoxyphenyl)pyridin-4-yl)phenyl)-2-methoxypyridin-3-yl)methyl)amino)methyl)pyrrolidin-2-one] showed an IC50 in assay [1] of 1.96 nM. Moreover, at human PD-L1, the EC50 came to 42.7 nM.
In turn, `COc1cc(-c2nccc(-c3cccc(-c4ccc(CNC[C@@H]5CCC(=O)N5)c(OC)n4)c3Cl)c2Cl)cc(F)c1CNC1CCN(C(C)=O)CC1` [Compound 148, (S)-5-((((6-(3-(2-(4-(((1-acetylpiperidin-4-yl)amino)methyl)-3-fluoro-5-methoxyphenyl)-3-chloropyridin-4-yl)-2-chlorophenyl)-2-methoxypyridin-3-yl)methyl)amino)methyl)pyrrolidin-2-one] registered a half-maximal inhibitory concentration (IC50) in assay [1] of 1.11 nM. The molecule also gave a concentration giving a half-maximal response (EC50) on human PD-L1 of 19.5 nM.
